The target in the test is Muscarinic acetylcholine receptor M1 (Rattus norvegicus) (UniProt P08482). The experiment in a line: concentration-dependent potentiation of ACh at M1 – cell-based, calcium mobilization, CHO-K1, ACh EC20, dose response (AID 2425). Particulars: CHO-K1 rat M1, Fluo-4 calcium, PAM with ACh EC20. (In general: A change in cytosolic calcium serves as a functional read-out for many receptors and channels.)

Calls of active or inactive are those of the source.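 Rule for the calls: active = fitted dose-response curve with goodness of fit R² above 0.5; inactive = the rest.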

Chain of Muscarinic acetylcholine receptor M1 (Rattus norvegicus) (P08482 whole entry, looked up): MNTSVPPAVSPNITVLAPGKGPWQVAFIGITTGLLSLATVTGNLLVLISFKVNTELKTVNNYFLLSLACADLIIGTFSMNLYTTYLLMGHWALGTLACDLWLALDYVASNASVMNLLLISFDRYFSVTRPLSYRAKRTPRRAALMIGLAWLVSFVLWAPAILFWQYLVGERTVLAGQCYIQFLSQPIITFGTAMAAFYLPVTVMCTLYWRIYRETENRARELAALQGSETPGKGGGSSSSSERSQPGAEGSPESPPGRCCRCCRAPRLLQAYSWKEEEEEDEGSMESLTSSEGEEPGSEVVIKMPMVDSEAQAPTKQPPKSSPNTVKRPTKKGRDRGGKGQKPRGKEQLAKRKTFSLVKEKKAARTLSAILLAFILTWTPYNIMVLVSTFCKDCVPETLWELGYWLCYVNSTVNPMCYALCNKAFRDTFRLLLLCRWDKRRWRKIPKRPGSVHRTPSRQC

Consider `O=C1C(=O)N(Cc2ccc(Oc3ccccc3)cc2)c2ccc(OC(F)(F)F)cc21`, for which the “potentiation, % max ACh” value (at 30 µM (top of the series)) is “inactive”. The term EC50 denotes the midpoint of the concentration-response curve. In the case of `Cc1cc(NC(=O)CS(=O)(=O)c2cn(Cc3cccc(Cl)c3)c3ccccc23)no1`, the concentration for a half-maximal effect (EC50) is 5.86 µM.

The values above are taken from PubChem BioAssay AID2425 (Vanderbilt High Throughput Screening Facility, 2010).
